Laboratory results from patent US20220202774A1, “PHARMACEUTICAL COMPOSITION FOR PREVENTION OR TREATMENT OF SPINAL CORD INJURY OR SPINAL STENOSIS” (NEUROBIT SCIENCE CO., LTD., priority 2019, published 2022).
Read-outs that look alike come from different tables or passages of the source.

Assays:
[1] = test system: chronic mechanical allodynia-induced rats; experiment: Paw withdrawal threshold (von Frey) in chronic mechanical allodynia-induced rats after compression of the cauda equina; format: in vivo, Sprague-Dawley rats
Protocol: For experiments related to the present invention, a total of 167 male Sprague-Dawley rats (250 to 270 g, Samtako, Osan, Korea) were used. The rats were kept in an environment of room temperature (23±1° C.) and 60±10% humidity under a 12-hour light/12-hour dark cycle (light on from 07:30 to 19:30) and given free access to water and food. The rats were housed individually in cages (410×282×153 mm, clear polycarbonate) lined with aspen shaving bedding and fed a commercial diet (5L79, PMI Nutrition International, St Louis, Mo.) and a commercial standard feed (Lab Diet 5L791 Purina Mills, Richmond, Ind.). All animal experiments were performed in accordance with the guidelines of the Animal Protection Committee of Kyung Hee University (Permission No. KHUASP(SE)-15-006) and in compliance with the ethical guidelines of the International Association for the Study of Pain.
More specifically, the rats were anesthetized by administering chloral hydrate (500 mg/kg) as an intraperitoneal injection, the backside of each rat was shaved, and the L4 to S2 vertebral plates were exposed.
Next, the ligamenta flava between L4 and L5 were removed. […]
Mechanical allodynia was assessed by detecting responses to stimulation with calibrated von Frey filaments and evaluated in terms of paw withdrawal threshold (PWT). […]

IL-1β mRNA = experiment: RT-PCR of IL-1β mRNA in cauda equina of chronic mechanical allodynia-induced rats; format: in vivo, Sprague-Dawley rats
Protocol: (§1) Only rats with a weight in the range of 350 to 380 g and in which chronic mechanical allodynia (2.5-4.0 g) was induced on the 28th day of compression of the cauda equina were selected as the experimental group. The rats were randomly assigned to three experimental groups treated with a vehicle, celecoxib, or the compound according to the present invention.
(§2) Celecoxib (Sigma, St. Louis, Mo.) or the compound according to the present invention was dissolved in methyl pyrrolidone:Tween-80:saline (1:1:8, 100 μl) and injected intraperitoneally at a dose of 2, 5, or 10 mg/kg. The vehicle group was injected with 1-methyl-2-pyrrolidone (1-methyl-2-pyrrolidone:Tween-80:saline (1:1:8)) at an equal dose.
(§3) At the time of the peak effect (30 minutes after injection of drug), the rats were anesthetized by injecting chloral hydrate (500 mg/kg) and perfused with 0.1 M PBS (pH 7.4), followed by perfusion with a solution containing 4% paraformaldehyde added to PBS.
(§4) For analysis at the molecular level, the rats were perfused with 0.1 M PBS, and a 20 mm-thick section of the cauda equina with the site of injury at the center was isolated and kept frozen at −80° C. until use.
(§5) RT-PCR of TNF-α, IL-1β, IL-6, iNOS, and GAPDH was performed. […]

[2] = test system: RAW 264.7 (the murine macrophage cell line); experiment: Cytotoxicity of macrophages (MTT assay); format: cell-based; settings: Mus musculus, RAW264.7; RAW 264.7, LPS 1 μg/ml, 24 hours; read-out: Cell viability(μM) (IC50, MTT assay)
Protocol: The physiological activity of 3-(4-chlorophenyl)-4-(4-aminosulfonyl-phenyl)-1-methyl-1H-pyrrole-2,5-dione prepared according to Example 2 has been expressed in terms of IC50, which is the concentration at which there is 50% inhibition of the activity of an enzyme. On the other hand, for the cytotoxicity of the compounds according to the present invention, cell viability values (IC50) were measured using the MTT assay.
RAW 264.7 (the murine macrophage cell line) was cultured in DMEM containing 10% FBS, penicillin (100 units/ml), and streptomycin sulfate (100 μg/ml) at 37° C. and in a humidified atmosphere of 5% carbon dioxide in air. Cells were collected using centrifugation and a scraper. The cells were added at a concentration of 1×10^5 cells/well to wells of a 96-well plate containing Roswell Park Memorial Institute (RPMI) 1640 medium, which includes 10% FBS. 3 beta, 4 beta-epoxy-8a-isobutyryloxyguaia-1(10),11, (13)-diene-12.6a-olide was dissolved in methylsulfoxide (DMSO) as a solvent. […] After one night, samples and LPS (1 μg/ml) were added to the wells, and the plate was incubated for 24 hours. […]

TNF-α mRNA = experiment: RT-PCR of TNF-α mRNA in cauda equina of chronic mechanical allodynia-induced rats; format: in vivo, Sprague-Dawley rats; settings: 30 minutes after administering
Protocol: as §1, §2, §3, §4, §5

PGE2 = PGE2 level in cauda equina fibers by ELISA; format: in vivo, Sprague-Dawley rats
Protocol: as §1, §2, §4
Levels of PEG2 in the cauda equina fibers were analyzed using a PEG2 ELISA kit (Monoclonal, Cayman Chemical Ann Arbor, Mich.) according to the manufacturer's instructions.
An experiment was performed using rats administered with celecoxib and the compound according to the present invention to confirm through RT-PCR whether production of inflammatory mediators is inhibited. Another experiment was performed to confirm through ELISA whether production of PGE2 is inhibited.

IL-6 mRNA = experiment: RT-PCR of IL-6 mRNA in cauda equina of chronic mechanical allodynia-induced rats; format: in vivo, Sprague-Dawley rats; settings: 30 minutes after administering
Protocol: as §1, §2, §3, §4, §5

[3] = test system: LPS-induced PGE2 production in RAW 264.7 (a murine macrophage cell line); experiment: Inhibition of production of LPS-induced PGE2 by macrophage cell line; format: cell-based; settings: Mus musculus
Protocol: RAW 264.7 (a murine macrophage cell line) was obtained from Korea Cell Line Bank (KCLB). RAW 264.7 was cultured in Dulbecco's Modified Eagle Medium (DMEM) containing 10% fetal bovine serum (FBS), penicillin (100 units/mL), and streptomycin sulfate (100 μg/mL) at 37° C. and in a humidified atmosphere of 5% carbon dioxide in air.
Using DMEM, 1 mL each of RAW 264.7 with a concentration of 5×10^5 cells/mL was seeded in 24 wells. The seeded cells were left overnight, the medium was changed, and then the drug was treated at an appropriate concentration. After incubating for 1 hour, LPS was treated at 1 μg/ml, followed by incubation for 24 hours (or an appropriate length of time). The supernatant was taken and diluted 5-fold. 150 μl of an assay buffer was added to Non-Specific Binding (NSB) wells, and 100 μl of the assay buffer was added to zero standard (Bo) wells. 100 μl of standard sample and 50 μl of PGE2 conjugates were added to the remaining wells (excluding the NSB wells). 50 μl of PGE2 antibody solution was added to the wells and shaken for 2 hours. The contents of each well were suctioned off, and the wells were washed 5 times with wash buffer. 200 μl of para-nitrophenyl phosphate (pNPP) substrate was added to all wells. After storing the wells at room temperature (in a clean bench) for 1 hour, 50 μl of a stop solution was added, and absorbance was measured at 405 nm. […]

iNOS mRNA = experiment: RT-PCR of iNOS mRNA in cauda equina of chronic mechanical allodynia-induced rats; format: in vivo, Sprague-Dawley rats; settings: 30 minutes after administering
Protocol: as §1, §2, §3, §4, §5

CN1C(=O)C(c2ccc(Cl)cc2)=C(c2ccc(S(N)(=O)=O)cc2)C1=O [3-(4-chlorophenyl)-4-(4-aminosulfonyl-phenyl)-1-methyl-1H-pyrrole-2,5-dione]
PWT compared to the vehicle group ([1]; 2, 5, 10 mg/kg intraperitoneal, 30 minutes after injecting): increased significantly in a dose-dependent manner
duration of analgesic effect ([1]; high dose, intraperitoneal): 3 h
expression of IL-1β mRNA (IL-1β mRNA): significantly reduced
IC50 [2]: > 10 µM
expression of TNF-α mRNA (TNF-α mRNA): significantly reduced
PGE2 production compared to the vehicle group (PGE2): significantly reduced
expression of IL-6 mRNA (IL-6 mRNA): significantly reduced
IC50 ([3]; RAW264.7, 24 h, RAW 264.7, LPS 1 μg/ml, 24 hours, read-out: IC50(μM) PGE2): 0.0087 µM
IC50 ([3]; RAW264.7, RAW 264.7, LPS-induced, text/FIG. 2, read-out: IC50 value for inhibition of PGE2 production): 0.00595 µM
expression of iNOS mRNA (iNOS mRNA): significantly reduced
